This is an account of results in patent US11820975B2, “Human blood brain barrier model” (National Research Council of Canada, priority 2014, dated 2023).

Structures are written as SMILES.

Data set [1] deals with AF-iPSC-BECs. In kind it is in vitro ADME, human. Particulars: AF-iPSC-BECs vs. HBMECs (Cell Systems), FIG. 6C.
The subject of data set [2] is AF-iPSC-derived neurons. In kind it is cell-based, human.
Data set [3] relates to AF-iPSC-BECs. In kind it is cell-based, human. To be noted: BBB model cultured with the agent; ACMx2 for 24 hours; FIG. 7A-B.

With `O=C([O-])c1ccccc1-c1c2ccc(=O)cc-2oc2cc([O-])ccc12.[Na+].[Na+]` [Sodium fluorescein], the “Sodium fluorescein permeability of AF-iPSC-BECs compared with HBMECs” value in data set [1] was “significantly lower”.

As for `NC1=N[C@H](O)[C@H]2[C@H]3O[C@]4(O)O[C@@H]([C@@H](O)[C@@]2(N1)[C@@H]4O)[C@]3(O)CO` [TTX, tetrodotoxin], the “Effect on spiking activity” value in data set [2] was “eliminated spiking activity”.

Turning to `C[C@]12CCC(=O)C=C1CC[C@@H]1[C@@H]2[C@@H](O)C[C@@]2(C)[C@H]1CC[C@]2(O)C(=O)CO` [hydrocortisone], the “Change in TEER value” in data set [3] is given as “significant increase”.
